# Literature values, collected in US20040096950A1, “Crystal structure of beta site APP cleaving enzyme (BACE) and methods of use thereof” (priority 2002, published 2004).
# Where a SMILES comes first, the peptide text is derived from it. [ ]: non-standard residue; d: D form. The star is where a group is joined. Sta = CC(C)C[C@H](N)[C@@H](O)CC(=O)O; Isovaleryl = CC(C)CC(=O)*
# Target: BACE (Homo sapiens, UniProt P56817)
# Details: background statement, no concentration given
# Sequence of BACE (P56817 46-501): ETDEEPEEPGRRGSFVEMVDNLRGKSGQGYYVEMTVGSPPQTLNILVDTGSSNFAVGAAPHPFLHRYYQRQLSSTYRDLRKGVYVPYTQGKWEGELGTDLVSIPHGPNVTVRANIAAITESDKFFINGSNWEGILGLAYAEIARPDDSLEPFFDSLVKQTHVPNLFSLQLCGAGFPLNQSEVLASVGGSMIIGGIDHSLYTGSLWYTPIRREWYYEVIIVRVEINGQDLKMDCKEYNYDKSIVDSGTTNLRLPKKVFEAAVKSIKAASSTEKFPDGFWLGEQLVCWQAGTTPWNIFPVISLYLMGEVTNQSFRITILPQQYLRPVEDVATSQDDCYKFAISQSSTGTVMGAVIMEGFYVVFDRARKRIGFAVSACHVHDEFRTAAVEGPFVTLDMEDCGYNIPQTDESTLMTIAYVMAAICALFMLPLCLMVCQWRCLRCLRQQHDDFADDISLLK
smiles,measurement,value
CC(C)CC(=O)N[C@H](C(=O)N[C@H](C(=O)N[C@@H](CC(C)C)[C@@H](O)CC(=O)N[C@@H](C)C(=O)N[C@@H](CC(C)C)[C@@H](O)CC(=O)O)C(C)C)C(C)C [pepstatin] (Isovaleryl-VV[Sta]A[Sta]-OH),inhibition of BACE,inhibited weakly
